In patent US10703756B2, “Pyrrolo[2,3-D]pyrimidinyl, pyrrolo[2,3-B]pyrazinyl, pyrrolo[2,3-B]pyridinyl acrylamides and epoxides thereof” (Pfizer Inc., priority 2015, dated 2020):

What follows are compounds tested on IL-15 induced P-STAT5 in human PBMC (assay: PBMC IL-15 Induced P-STAT5). Conditions: human PBMC, IL-15 final 41 ng/mL; read-out: PBMC IL15_pSTAT5_IC50.
Type: cell-based
Summary of the method: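 Thawed human PBMC, rested in human plasma, were preincubated 15 min at 37 °C with compound (0.2% DMSO), then stimulated 15 min with IL-15 at 41 ng/mL final. After paraformaldehyde fixation and methanol permeabilisation, Alexa Fluor 647 anti-STAT5 staining overnight at 4 °C was analysed by flow cytometry on total lymphocytes.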
In the case of `C=CC(=O)N1CCC(Oc2cnc3[nH]cc(C(=O)N[C@H](C)CC)c3n2)CC1` [Example 227, 2-[(1-acryloylpiperidin-4-yl)oxy]-N-[(2R)-butan-2-yl]-5H-pyrrolo[2,3-b]pyrazine-7-carboxamide], the IC50 is reported as 146 nM. In the case of `C=CC(=O)N1CCC(Oc2cnc3[nH]cc(C(=O)N[C@@H](C)COC)c3n2)CC1` [Example 228, 2-[(1-acryloylpiperidin-4-yl)oxy]-N-[(2S)-1-methoxypropan-2-yl]-5H-pyrrolo[2,3-b]pyrazine-7-carboxamide], the IC50 is reported as 93.3 nM. Compound `C=CC(=O)N1CCC(Oc2cnc3[nH]cc(C(=O)N[C@@H]4CCC[C@H]4F)c3n2)CC1` [Example 229, 2-[(1-acryloylpiperidin-4-yl)oxy]-N-[(1R,2R)-2-fluorocyclopentyl]-5H-pyrrolo[2,3-b]pyrazine-7-carboxamide] has an IC50 of 221 nM. Compound `C=CC(=O)N1CCC(Oc2cnc3[nH]cc(C(=O)N[C@@H]4CCC[C@@H]4F)c3n2)CC1` [Example 230, 2-[(1-acryloylpiperidin-4-yl)oxy]-N-[(1R,2S)-2-fluorocyclopentyl]-5H-pyrrolo[2,3-b]pyrazine-7-carboxamide] has an IC50 of 155 nM. Compound `C=CC(=O)N1CC[C@H](Nc2cnc3[nH]cc(C(=O)NCC4CCCC4)c3n2)[C@H](OC)C1` [Example 284, 2-{[(3R,4S)-1-acryloyl-3-methoxypiperidin-4-yl]amino}-N-(cyclopentylmethyl)-5H-pyrrolo[2,3-b]pyrazine-7-carboxamide] has an IC50 of 186 nM. In the case of `C=CC(=O)N1CCN(c2cnc3[nH]cc(C(=O)NCC(C)C)c3n2)C[C@@H]1CC(C)C` [Example 288, 2-[(3S)-4-acryloyl-3-(2-methylpropyl)piperazin-1-yl]-N-(2-methylpropyl)-5H-pyrrolo[2,3-b]pyrazine-7-carboxamide], the IC50 is reported as 151 nM. For `C=CC(=O)N1CC[C@H](Nc2cnc3[nH]cc(C(=O)NCC(F)(F)F)c3n2)[C@H](OC)C1` [Example 293, 2-{[(3R,4S)-1-acryloyl-3-methoxypiperidin-4-yl]amino}-N-(2,2,2-trifluoroethyl)-5H-pyrrolo[2,3-b]pyrazine-7-carboxamide], the IC50 was 218 nM. In the case of `C=CC(=O)N1CCN(c2cnc3[nH]cc(C(=O)N[C@@H](C)COC)c3n2)CC1` [Example 295, 2-(4-acryloylpiperazin-1-yl)-N-[(2S)-1-methoxypropan-2-yl]-5H-pyrrolo[2,3-b]pyrazine-7-carboxamide], the IC50 is reported as 71 nM. With `C=CC(=O)N1CCN(c2cnc3[nH]cc(C(=O)N[C@@H](C)COC)c3n2)CC1(C)C` [Example 298, 2-(4-acryloyl-3,3-dimethylpiperazin-1-yl)-N-[(2S)-1-methoxypropan-2-yl]-5H-pyrrolo[2,3-b]pyrazine-7-carboxamide] the IC50 was 210 nM. Work on `C=CC(=O)N1CCN(c2cnc3[nH]cc(C(=O)N[C@H](CC)CC#N)c3n2)C[C@@H]1CC(C)C` [Example 314, 2-[(3S)-4-acryloyl-3-(2-methylpropyl)piperazin-1-yl]-N-[(2R)-1-cyanobutan-2-yl]-5H-pyrrolo[2,3-b]pyrazine-7-carboxamide] yielded an IC50 of 115 nM. For `C=CC(=O)N1CC[C@H](Nc2cnc3[nH]cc(C(=O)NCCCC(F)(F)F)c3n2)[C@H](OC)C1` [Example 319, 2-{[(3R,4S)-1-acryloyl-3-methoxypiperidin-4-yl]amino}-N-(4,4,4-trifluorobutyl)-5H-pyrrolo[2,3-b]pyrazine-7-carboxamide], the IC50 was 211 nM. Compound `C=CC(=O)N1CC[C@@H](Nc2cnc3[nH]cc(C(=O)NCC(C)(F)F)c3n2)[C@@H](OC)C1` [Example 321, 2-{[(3S,4R)-1-acryloyl-3-methoxypiperidin-4-yl]amino}-N-(2,2-difluoropropyl)-5H-pyrrolo[2,3-b]pyrazine-7-carboxamide] has an IC50 of 310 nM. With `C=CC(=O)N1CCC(C)(Nc2cnc3[nH]cc(C(=O)NC4CCC4)c3n2)CC1` [Example 324, 2-[(1-acryloyl-4-methylpiperidin-4-yl)amino]-N-cyclobutyl-5H-pyrrolo[2,3-b]pyrazine-7-carboxamide] the IC50 was 203 nM. `C=CC(=O)N1CC[C@H](Nc2cnc3[nH]cc(C(=O)NCC)c3n2)[C@H](OC)C1` [Example 326, 2-{[(3R,4S)-1-acryloyl-3-methoxypiperidin-4-yl]amino}-N-ethyl-5H-pyrrolo[2,3-b]pyrazine-7-carboxamide] was tested, and the IC50 was 330 nM. For `C=CC(=O)N1CCN(c2cnc3[nH]cc(C(=O)N[C@H](C)COC)c3n2)CC1(C)C` [Example 327], the IC50 was 261 nM. `C=CC(=O)N1CC[C@@H](Nc2cnc3[nH]cc(C(=O)N[C@H](C)COC)c3n2)[C@@H](OC)C1` [Example 331, 2-{[(3S,4R)-1-acryloyl-3-methoxypiperidin-4-yl]amino}-N-[(2R)-1-methoxypropan-2-yl]-5H-pyrrolo[2,3-b]pyrazine-7-carboxamide] showed an IC50 of 288 nM. Compound `C=CC(=O)N1CCN(c2cnc3[nH]cc(C(=O)N[C@H](C)COC)c3n2)CC1` [Example 332] has an IC50 of 87.7 nM.
